Assay results: patent US10253002B2, “Compounds and methods of treating infections” (Neoculi Pty Ltd., priority 2013, dated 2019)
Converted amounts (≈) assume the structure as drawn. “And” between values parts separate entries of the source, which are not always exact repeats. Equal entries are not always repeated. Where two headings read alike, the source gives them in different places.

Key:
Test in all cases: Broth microdilution MIC, Example 7 (NCL812 and analogues)
VRE = format: cell-based, Enterococcus spp.; conditions: for MIC: Enterococcus, VRE, 24 h
Method in brief: (§1)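 Isolates were tested in duplicate, with a third run if replicates differed by more than one two-fold dilution; inoculum purity was checked on sheep blood agar.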

Escherichia coli = format: cell-based; conditions: 24 hours; for MIC: Escherichia coli, read-out: MIC (μg/ml) at 24 hours E. coli
Pseudomonas aeruginosa = format: cell-based; conditions: for MIC: Pseudomonas aeruginosa, 24 h, read-out: MIC (μg/ml) at 24 hours P. aeruginosa, P. aeruginosa, 24 hours
MRSA = format: cell-based, Staphylococcus aureus; conditions: for MIC: Staphylococcus aureus, MRSA
Method in brief: as §1

[1] = VRE 1, 24 hours, duplicate lines per compound
[2] = VRE 2, 24 hours, duplicate lines per compound
[3] = E. coli, duplicate lines per compound
[4] = P. aeruginosa, duplicate lines per compound
[5] = MRSA 1, 24 hours, duplicate lines per compound
[6] = MRSA 2, 24 hours, duplicate lines per compound
[7] = read-out: MIC (μg/ml) at 24 hours VRE 1, VRE 1, 24 hours
[8] = read-out: MIC (μg/ml) at 24 hours VRE 2, VRE 2, 24 hours
[9] = 24 h, read-out: MIC (μg/ml) at 24 hours MRSA 1, MRSA 1, 24 hours
[10] = 24 h, read-out: MIC (μg/ml) at 24 hours MRSA 2, MRSA 2, 24 hours
[11] = isolate VRE 1, 24 hours, 1st and 2nd replicate rows
[12] = isolate VRE 2, 24 hours, 1st and 2nd replicate rows
[13] = isolate MRSA 1, 24 hours, 1st and 2nd replicate rows
[14] = isolate MRSA 2, 24 hours, 1st and 2nd replicate rows

Q: How did the “MIC (μg/ml) at 24 hours, VRE 1” value (VRE; [1]) turn out when `CC(=O)Nc1ccc(C=NNC(=N)NN=Cc2ccc(NC(C)=O)cc2)cc1.Cl` [NCL 119] was run?
A: >128 µg/mL

Q: What about the “MIC (μg/ml) at 24 hours, VRE 2” value (VRE; [2]) of the same molecule?
A: >128 µg/mL

Q: What about the “MIC (μg/ml) at 24 hours, E. coli” value (Escherichia coli; [3]) of the same molecule?
A: >128 µg/mL

Q: What about the “MIC (μg/ml) at 24 hours, P. aeruginosa” value (Pseudomonas aeruginosa; [4]) of the same molecule?
A: >128 µg/mL

Q: What about the “MIC (μg/ml) at 24 hours, MRSA 1” value (MRSA; [5]) of the same molecule?
A: >128 µg/mL

Q: What about the “MIC (μg/ml) at 24 hours, MRSA 2” value (MRSA; [6]) of the same molecule?
A: >128 µg/mL

Q: `Nc1nc(N/N=C/c2ccccc2)nc(N/N=C/c2ccccc2)n1` [NCL214] was tested. Which “MIC (μg/ml) at 24 hours, VRE 1” value (VRE; VRE 1, 24 hours) did it give?
A: >128 µg/mL

Q: What about the “MIC (μg/ml) at 24 hours, VRE 2” value (VRE; VRE 2, 24 hours) of the same molecule?
A: >128 µg/mL

Q: What about the “MIC (μg/ml) at 24 hours, E. coli” value (Escherichia coli; E. coli) of the same molecule?
A: >128 µg/mL

Q: And the “MIC (μg/ml) at 24 hours, P. aeruginosa” value (Pseudomonas aeruginosa; P. aeruginosa)?
A: >128 µg/mL

Q: What about the “MIC (μg/ml) at 24 hours, MRSA 1” value (MRSA; MRSA 1, 24 hours) of the same molecule?
A: >128 µg/mL

Q: What about the “MIC (μg/ml) at 24 hours, MRSA 2” value (MRSA; MRSA 2, 24 hours) of the same molecule?
A: >128 µg/mL

Q: What does the source list for `Nc1nc(N/N=C/c2ccc(O)cc2)cc(N/N=C/c2ccc(O)cc2)n1` [NCL196, 4,4′-((1E,1′E)-((2-aminopyrimidine-4,6-diyl)bis(hydrazin-2-yl-1ylidene))bis(methanylylidene))diphenol]?
A: MIC (VRE; [7]): 32 µg/mL (≈ 88.1 µM); MIC (VRE; [8]): 64 µg/mL (≈ 176 µM); MIC (μg/ml) at 24 hours, VRE 1 (VRE; VRE 1, 24 hours): 64 µg/mL (≈ 176 µM); MIC (Escherichia coli; E. coli): 64 µg/mL (≈ 176 µM); MIC (μg/ml) at 24 hours, P. aeruginosa (Pseudomonas aeruginosa; P. aeruginosa): 128 µg/mL (≈ 352 µM); MIC (Pseudomonas aeruginosa): 64 µg/mL (≈ 176 µM); MIC (μg/ml) at 24 hours, MRSA 2 (MRSA; MRSA 2, 24 hours): 32 µg/mL (≈ 88.1 µM); MIC (MRSA; [9]): 32 µg/mL (≈ 88.1 µM); MIC (MRSA; [10]): 64 µg/mL (≈ 176 µM)

Q: Which results are given for `Cl.N=C(NN=Cc1ccc(Cl)cc1N)NN=Cc1ccc(Cl)cc1N` [NCL 157]?
A: MIC (μg/ml) at 24 hours, VRE 1 (VRE; [1]): 2 µg/mL; MIC (μg/ml) at 24 hours, VRE 2 (VRE; [2]): 2 µg/mL and 4 µg/mL; MIC (μg/ml) at 24 hours, E. coli (Escherichia coli; [3]): >128 µg/mL; MIC (μg/ml) at 24 hours, P. aeruginosa (Pseudomonas aeruginosa; [4]): >128 µg/mL; MIC (μg/ml) at 24 hours, MRSA 1 (MRSA; [5]): 2 µg/mL; MIC (μg/ml) at 24 hours, MRSA 2 (MRSA; [6]): 2 µg/mL

Q: `Cl.N=C(NN=Cc1ccc([N+](=O)[O-])cc1)NN=Cc1ccc([N+](=O)[O-])cc1` [NCL110] was tested. Which “MIC (μg/ml) at 24 hours, VRE 1” value (VRE; [1]) did it give?
A: >128 µg/mL

Q: What about the “MIC (μg/ml) at 24 hours, VRE 2” value (VRE; [2]) of the same molecule?
A: >128 µg/mL

Q: And the “MIC (μg/ml) at 24 hours, E. coli” value (Escherichia coli; [3])?
A: >128 µg/mL

Q: And the “MIC (μg/ml) at 24 hours, P. aeruginosa” value (Pseudomonas aeruginosa; [4])?
A: >128 µg/mL

Q: What about the “MIC (μg/ml) at 24 hours, MRSA 1” value (MRSA; [5]) of the same molecule?
A: >128 µg/mL

Q: What about the “MIC (μg/ml) at 24 hours, MRSA 2” value (MRSA; [6]) of the same molecule?
A: >128 µg/mL

Q: `CC(=NNC(=N)NN=C(C)c1ccc(Cl)cc1N)c1ccc(Cl)cc1N.Cl` [NCL 164] was tested. Which “MIC (μg/ml) at 24 hours, VRE 1” value (VRE; [1]) did it give?
A: >128 µg/mL

Q: What about the “MIC (μg/ml) at 24 hours, VRE 2” value (VRE; [2]) of the same molecule?
A: >128 µg/mL

Q: And the “MIC (μg/ml) at 24 hours, E. coli” value (Escherichia coli; [3])?
A: >128 µg/mL

Q: What about the “MIC (μg/ml) at 24 hours, P. aeruginosa” value (Pseudomonas aeruginosa; [4]) of the same molecule?
A: >128 µg/mL

Q: What about the “MIC (μg/ml) at 24 hours, MRSA 1” value (MRSA; [5]) of the same molecule?
A: >128 µg/mL

Q: And the “MIC (μg/ml) at 24 hours, MRSA 2” value (MRSA; [6])?
A: >128 µg/mL

Q: How did the “MIC (μg/ml) at 24 hours, VRE 1” value (VRE; [11]) turn out when `NC(=O)N/N=C/c1ccccc1F` [NCL048] was run?
A: >128 µg/mL

Q: And the “MIC (μg/ml) at 24 hours, VRE 2” value (VRE; [12])?
A: >128 µg/mL

Q: And the “MIC (μg/ml) at 24 hours, E. coli” value (Escherichia coli; 1st and 2nd replicate rows)?
A: >128 µg/mL

Q: What about the “MIC (μg/ml) at 24 hours, P. aeruginosa” value (Pseudomonas aeruginosa; 1st and 2nd replicate rows) of the same molecule?
A: >128 µg/mL

Q: And the “MIC (μg/ml) at 24 hours, MRSA 1” value (MRSA; [13])?
A: >128 µg/mL

Q: What about the “MIC (μg/ml) at 24 hours, MRSA 2” value (MRSA; [14]) of the same molecule?
A: >128 µg/mL

Q: `N#Cc1ccccc1/C=N/NC(N)=O` [NCL050] was tested. Which “MIC (μg/ml) at 24 hours, VRE 1” value (VRE; [11]) did it give?
A: >128 µg/mL

Q: And the “MIC (μg/ml) at 24 hours, VRE 2” value (VRE; [12])?
A: >128 µg/mL

Q: What about the “MIC (μg/ml) at 24 hours, E. coli” value (Escherichia coli; 1st and 2nd replicate rows) of the same molecule?
A: >128 µg/mL

Q: What about the “MIC (μg/ml) at 24 hours, P. aeruginosa” value (Pseudomonas aeruginosa; 1st and 2nd replicate rows) of the same molecule?
A: >128 µg/mL

Q: And the “MIC (μg/ml) at 24 hours, MRSA 1” value (MRSA; [13])?
A: >128 µg/mL

Q: And the “MIC (μg/ml) at 24 hours, MRSA 2” value (MRSA; [14])?
A: >128 µg/mL

Q: What does the source list for `N#Cc1ccc(/C=N/NC(=O)N/N=C/c2ccc(C#N)cc2)cc1` [NCL007]?
A: MIC (μg/ml) at 24 hours, VRE 1 (VRE; [11]): >128 µg/mL; MIC (μg/ml) at 24 hours, VRE 2 (VRE; [12]): >128 µg/mL; MIC (μg/ml) at 24 hours, E. coli (Escherichia coli; 1st and 2nd replicate rows): >128 µg/mL; MIC (μg/ml) at 24 hours, P. aeruginosa (Pseudomonas aeruginosa; 1st and 2nd replicate rows): >128 µg/mL; MIC (μg/ml) at 24 hours, MRSA 1 (MRSA; [13]): >128 µg/mL; MIC (μg/ml) at 24 hours, MRSA 2 (MRSA; [14]): >128 µg/mL

Q: Which results are given for `Cl.N=C(NN=CC1=C(Cl)c2cc(F)ccc2OC1)NN=CC1=C(Cl)c2cc(F)ccc2OC1` [NCL 132]?
A: MIC (μg/ml) at 24 hours, VRE 1 (VRE; [1]): >128 µg/mL; MIC (μg/ml) at 24 hours, VRE 2 (VRE; [2]): >128 µg/mL; MIC (μg/ml) at 24 hours, E. coli (Escherichia coli; [3]): >128 µg/mL; MIC (μg/ml) at 24 hours, P. aeruginosa (Pseudomonas aeruginosa; [4]): >128 µg/mL; MIC (μg/ml) at 24 hours, MRSA 1 (MRSA; [5]): >128 µg/mL; MIC (μg/ml) at 24 hours, MRSA 2 (MRSA; [6]): >128 µg/mL

Q: `C/C(=N\Nc1cc(N/N=C(\C)c2ccc(Cl)cc2)nc(N)n1)c1ccc(Cl)cc1` [NCL204] was tested. Which MIC (VRE; [7]) did it give?
A: 64 µg/mL (≈ 149 µM)

Q: And the MIC (VRE; [8])?
A: > 128 µg/mL

Q: And the “activity against VRE among analogues” value (VRE; MIC testing, two VRE strains)?
A: greatest activity

Q: What about the MIC (Escherichia coli; E. coli) of the same molecule?
A: > 128 µg/mL

Q: What about the MIC (Pseudomonas aeruginosa) of the same molecule?
A: > 128 µg/mL

Q: What about the “activity against MRSA among analogues” value (MRSA; MIC testing, two MRSA strains) of the same molecule?
A: greatest activity

Q: What about the “MIC (μg/ml) at 24 hours, MRSA 1” value (MRSA; MRSA 1, 24 hours) of the same molecule?
A: 8 µg/mL (≈ 18.7 µM)

Q: What about the “MIC (μg/ml) at 24 hours, MRSA 2” value (MRSA; MRSA 2, 24 hours) of the same molecule?
A: 8 µg/mL (≈ 18.7 µM)

Q: What about the MIC (MRSA; [9]) of the same molecule?
A: 4 µg/mL (≈ 9.34 µM)

Q: What about the MIC (MRSA; [10]) of the same molecule?
A: 4 µg/mL (≈ 9.34 µM)

Q: What about the MIC (MRSA; bioassay ranking, read-out: MRSA) of the same molecule?
A: 6 µg/mL (≈ 14 µM)

Q: What does the source list for `COc1cc(C=NNC(=N)NN=Cc2cc(O)c(O)c(OC)c2)cc(O)c1O.Cl` [NCL106]?
A: MIC (μg/ml) at 24 hours, VRE 1 (VRE; [1]): >128 µg/mL; MIC (μg/ml) at 24 hours, VRE 2 (VRE; [2]): >128 µg/mL; MIC (μg/ml) at 24 hours, E. coli (Escherichia coli; [3]): >128 µg/mL; MIC (μg/ml) at 24 hours, P. aeruginosa (Pseudomonas aeruginosa; [4]): >128 µg/mL; MIC (μg/ml) at 24 hours, MRSA 1 (MRSA; [5]): >128 µg/mL; MIC (μg/ml) at 24 hours, MRSA 2 (MRSA; [6]): >128 µg/mL
